According to US12473304B2, “Heterocyclic PAD4 inhibitors” (BRISTOL-MYERS SQUIBB COMPANY, priority 2020, dated 2025):

target: human PAD4 (hPAD4) (Homo sapiens (Human), UniProt Q9UM07); assay: RFMS Human PAD4 Functional Assay 1; format: biochemical; conditions: RFMS assay 1; 5 nM hPAD4, 250 μM BAEE substrate, 50 μM calcium, 37° C.
Method in brief: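 Recombinant hPAD4 (5 nM) was preincubated with compound (top 50 μM, 0.5% DMSO) for 30 min at 37 °C, then reacted with 250 μM BAEE for 90 min at 37 °C in pH 7.5 HEPES buffer with 50 μM calcium and 5 μM TPEN. Product was derivatized with phenyl glyoxal and quantified by RapidFire MS.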

human PAD4 (hPAD4), sequence (Q9UM07 whole entry): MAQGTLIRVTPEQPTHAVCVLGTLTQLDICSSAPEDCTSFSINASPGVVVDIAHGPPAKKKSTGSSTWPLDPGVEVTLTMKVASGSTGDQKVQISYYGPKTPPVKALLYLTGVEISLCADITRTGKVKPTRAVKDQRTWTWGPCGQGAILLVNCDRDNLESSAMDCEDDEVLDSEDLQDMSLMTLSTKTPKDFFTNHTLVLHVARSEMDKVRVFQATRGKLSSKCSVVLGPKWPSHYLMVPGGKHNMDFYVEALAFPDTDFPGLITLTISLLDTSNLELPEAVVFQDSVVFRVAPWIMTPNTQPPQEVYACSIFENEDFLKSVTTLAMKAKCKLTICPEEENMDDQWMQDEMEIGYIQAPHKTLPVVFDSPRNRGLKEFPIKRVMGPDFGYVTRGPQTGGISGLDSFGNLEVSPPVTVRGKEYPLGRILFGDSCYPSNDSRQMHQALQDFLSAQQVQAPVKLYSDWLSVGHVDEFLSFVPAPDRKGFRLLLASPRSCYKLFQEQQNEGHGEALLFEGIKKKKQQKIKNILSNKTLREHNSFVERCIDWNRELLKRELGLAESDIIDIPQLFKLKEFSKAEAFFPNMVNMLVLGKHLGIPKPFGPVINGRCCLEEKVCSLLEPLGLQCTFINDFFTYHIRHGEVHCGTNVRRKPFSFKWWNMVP

IC50	SMILES
1530 nM	COCC(=O)N1CC(c2cccc3cc(-c4nn5cc(C(=O)N6CCC[C@@H](N)C6)cc(OC)c5c4C)n(CC4CC4)c23)C1 [Example 529, (R)-1-(3-(2-(6-(3-Aminopiperidine-1-carbonyl)-4-methoxy-3-methylpyrazolo[1,5-a]pyridin-2-yl)-1-(cyclopropylmethyl)-1H-indol-7-yl)azetidin-1-yl)-2-methoxyethan-1-one]
30 nM	Cc1c(-c2cc3cccc(C4CN(C(=O)[C@H]5CC[C@H](O)CC5)C4)c3n2CC2CC2)nn2cc(C(=O)N3CCC[C@@H](N)C3)ccc12 [Example 530, ((R)-3-Aminopiperidin-1-yl)(2-(1-(cyclopropylmethyl)-7-(1-((1r,4r)-4-hydroxycyclohexane-1-carbonyl)azetidin-3-yl)-1H-indol-2-yl)-3-methylpyrazolo[1,5-a]pyridin-6-yl)methanone]
580 nM	Cc1c(-c2cc3cccc(C4CN(C(=O)[C@@H]5CCC[C@H](O)C5)C4)c3n2CC2CC2)nn2cc(C(=O)N3C[C@H](N)C[C@@H](F)C3)ccc12 [Example 531, ((3R,5R)-3-Amino-5-fluoropiperidin-1-yl)(2-(1-(cyclopropylmethyl)-7-(1-((1R,3S)-3-hydroxycyclohexane-1-carbonyl)azetidin-3-yl)-1H-indol-2-yl)-3-methylpyrazolo[1,5-a]pyridin-6-yl)methanone]
1010 nM	Cc1c(-c2cc3cccc(C4CN(C(=O)[C@@H]5CCC[C@H](O)C5)C4)c3n2CC2CC2)nn2cc(C(=O)N3CCC[C@@H](N)C3)ccc12 [Example 532, ((R)-3-Aminopiperidin-1-yl)(2-(1-(cyclopropylmethyl)-7-(1-((1R,3S)-3-hydroxycyclohexane-1-carbonyl)azetidin-3-yl)-1H-indol-2-yl)-3-methylpyrazolo[1,5-a]pyridin-6-yl)methanone]
520 nM	Cc1c(-c2cc3cccc(C4CN(C(=O)[C@H]5CCC[C@@H](O)C5)C4)c3n2CC2CC2)nn2cc(C(=O)N3C[C@H](N)C[C@@H](F)C3)ccc12 [Example 533, ((3R,5R)-3-Amino-5-fluoropiperidin-1-yl)(2-(1-(cyclopropylmethyl)-7-(1-((1S,3R)-3-hydroxycyclohexane-1-carbonyl)azetidin-3-yl)-1H-indol-2-yl)-3-methylpyrazolo[1,5-a]pyridin-6-yl)methanone]
440 nM	Cc1c(-c2cc3cccc(C4CN(C(=O)[C@H]5CCC[C@@H](O)C5)C4)c3n2CC2CC2)nn2cc(C(=O)N3CCC[C@@H](N)C3)ccc12 [Example 534, ((R)-3-Aminopiperidin-1-yl)(2-(1-(cyclopropylmethyl)-7-(1-((1S,3R)-3-hydroxycyclohexane-1-carbonyl)azetidin-3-yl)-1H-indol-2-yl)-3-methylpyrazolo[1,5-a]pyridin-6-yl)methanone]
2520 nM	COC(C)(C)C(=O)N1CC(c2cccc3cc(-c4nn5cc(C(=O)N6CCC[C@@H](N)C6)ccc5c4C)n(CC4CC4)c23)C1 [Example 536, (R)-1-(3-(2-(6-(3-Aminopiperidine-1-carbonyl)-3-methylpyrazolo[1,5-a]pyridin-2-yl)-1-(cyclopropylmethyl)-1H-indol-7-yl)azetidin-1-yl)-2-methoxy-2-methylpropan-1-one]
70 nM	Cc1c(-c2cc3cccc(C4CN(C(=O)[C@H]5CC[C@H](O)CC5)C4)c3n2CC2CC2)nn2cc(C(=O)N3C[C@H](N)C[C@@H](F)C3)ccc12 [Example 537, ((3R,5R)-3-Amino-5-fluoropiperidin-1-yl)(2-(1-(cyclopropylmethyl)-7-(1-((1r,4r)-4-hydroxycyclohexane-1-carbonyl)azetidin-3-yl)-1H-indol-2-yl)-3-methylpyrazolo[1,5-a]pyridin-6-yl)methanone]
40 nM	Cc1c(-c2cc3cccc(C4CN(C(=O)[C@H]5CC[C@@H](O)CC5)C4)c3n2CC2CC2)nn2cc(C(=O)N3C[C@H](N)C[C@@H](F)C3)ccc12 [Example 538, ((3R,5R)-3-Amino-5-fluoropiperidin-1-yl)(2-(1-(cyclopropylmethyl)-7-(1-((1s,4s)-4-hydroxycyclohexane-1-carbonyl)azetidin-3-yl)-1H-indol-2-yl)-3-methylpyrazolo[1,5-a]pyridin-6-yl)methanone]
130 nM	Cc1c(-c2cc3cccc(C4CN(C(=O)[C@H]5CC[C@@H](O)CC5)C4)c3n2CC2CC2)nn2cc(C(=O)N3CCC[C@@H](N)C3)ccc12 [Example 539, ((R)-3-Aminopiperidin-1-yl)(2-(1-(cyclopropylmethyl)-7-(1-((1s,4s)-4-hydroxycyclohexane-1-carbonyl)azetidin-3-yl)-1H-indol-2-yl)-3-methylpyrazolo[1,5-a]pyridin-6-yl)methanone]
1100 nM	CO[C@H](C)C(=O)N1CC(c2cccc3cc(-c4nn5cc(C(=O)N6C[C@H](N)C[C@@H](F)C6)ccc5c4C)n(CC4CC4)c23)C1 [Example 540, (R)-1-(3-(2-(6-((3R,5R)-3-Amino-5-fluoropiperidine-1-carbonyl)-3-methylpyrazolo[1,5-a]pyridin-2-yl)-1-(cyclopropylmethyl)-1H-indol-7-yl)azetidin-1-yl)-2-methoxypropan-1-one]
2530 nM	CO[C@H](C)C(=O)N1CC(c2cccc3cc(-c4nn5cc(C(=O)N6CCC[C@@H](N)C6)ccc5c4C)n(CC4CC4)c23)C1 [Example 541, (R)-1-(3-(2-(6-((R)-3-Aminopiperidine-1-carbonyl)-3-methylpyrazolo[1,5-a]pyridin-2-yl)-1-(cyclopropylmethyl)-1H-indol-7-yl)azetidin-1-yl)-2-methoxypropan-1-one]
580 nM	CO[C@@H](C)C(=O)N1CC(c2cccc3cc(-c4nn5cc(C(=O)N6C[C@H](N)C[C@@H](F)C6)ccc5c4C)n(CC4CC4)c23)C1 [Example 542, (S)-1-(3-(2-(6-((3R,5R)-3-Amino-5-fluoropiperidine-1-carbonyl)-3-methylpyrazolo[1,5-a]pyridin-2-yl)-1-(cyclopropylmethyl)-1H-indol-7-yl)azetidin-1-yl)-2-methoxypropan-1-one]
630 nM	CO[C@@H](C)C(=O)N1CC(c2cccc3cc(-c4nn5cc(C(=O)N6CCC[C@@H](N)C6)ccc5c4C)n(CC4CC4)c23)C1 [Example 543, (S)-1-(3-(2-(6-((R)-3-aminopiperidine-1-carbonyl)-3-methylpyrazolo[1,5-a]pyridin-2-yl)-1-(cyclopropylmethyl)-1H-indol-7-yl)azetidin-1-yl)-2-methoxypropan-1-one]
560 nM	COCC(=O)N1CC(c2cccc3cc(-c4nn5cc(C(=O)N6CCC[C@@H](N)C6)ccc5c4C)n(CC4CC4)c23)C1 [Example 546, (R)-1-(3-(2-(6-(3-Aminopiperidine-1-carbonyl)-3-methylpyrazolo[1,5-a]pyridin-2-yl)-1-(cyclopropylmethyl)-1H-indol-7-yl)azetidin-1-yl)-2-methoxyethan-1-one]
490 nM	COCC(=O)N1CC(c2cccc3cc(-c4nn5cc(C(=O)N6C[C@H](N)C[C@@H](F)C6)ccc5c4C)n(CC4CC4)c23)C1 [Example 547, 1-(3-(2-(6-((3R,5R)-3-Amino-5-fluoropiperidine-1-carbonyl)-3-methylpyrazolo[1,5-a]pyridin-2-yl)-1-(cyclopropylmethyl)-1H-indol-7-yl)azetidin-1-yl)-2-methoxyethan-1-one]
170 nM	CC(=O)N1CC(c2cccc3cc(-c4nn5cc(C(=O)N6C[C@H](N)C[C@@H](F)C6)ccc5c4C)n(CC4CC4)c23)C1 [Example 548, 1-(3-(2-(6-((3R,5R)-3-Amino-5-fluoropiperidine-1-carbonyl)-3-methylpyrazolo[1,5-a]pyridin-2-yl)-1-(cyclopropylmethyl)-1H-indol-7-yl)azetidin-1-yl)ethan-1-one]
10 nM	CC(=O)N1CC(c2cccc3cc(-c4nn5cc(C(=O)N6CC7CCC6[C@@H]7N)ccc5c4C)n(CC4CC4)c23)C1 (stereo partly drawn) [Example 549, 1-(3-(2-(6-((7R)-7-Amino-2-azabicyclo[2.2.1]heptane-2-carbonyl)-3-methylpyrazolo[1,5-a]pyridin-2-yl)-1-(cyclopropylmethyl)-1H-indol-7-yl)azetidin-1-yl)ethan-1-one]
50 nM	COc1cc(C(=O)N2C[C@H](N)C[C@@H](F)C2)cn2nc(-c3cc4cccc(OC[C@H]5CCC(=O)N5)c4n3CC3CC3)c(C)c12 [Example 550, (R)-5-(((2-(6-((3R,5R)-3-amino-5-fluoropiperidine-1-carbonyl)-4-methoxy-3-methylpyrazolo[1,5-a]pyridin-2-yl)-1-(cyclopropylmethyl)-1H-indol-7-yl)oxy)methyl)pyrrolidin-2-one]
30 nM	COc1cc(C(=O)N2CCC[C@@H](N)C2)cn2nc(-c3cc4cccc(OCCn5cncn5)c4n3CC3CC3)c(C)c12 [Example 555, (R)-(2-(7-(2-(1H-1,2,4-Triazol-1-yl)ethoxy)-1-(cyclopropylmethyl)-1H-indol-2-yl)-4-methoxy-3-methylpyrazolo[1,5-a]pyridin-6-yl)(3-aminopiperidin-1-yl)methanone]
20 nM	COc1cc(C(=O)N2C[C@H](N)C[C@@H](F)C2)cn2nc(-c3cc4cccc(OCCn5cncn5)c4n3CC3CC3)c(C)c12 [Example 556, (2-(7-(2-(1H-1,2,4-Triazol-1-yl)ethoxy)-1-(cyclopropylmethyl)-1H-indol-2-yl)-4-methoxy-3-methylpyrazolo[1,5-a]pyridin-6-yl)((3R,5R)-3-amino-5-fluoropiperidin-1-yl)methanone]
10 nM	COc1cc(C(=O)N2C[C@H](N)C[C@@H](F)C2)cn2nc(-c3cc4cccc(OCCn5cc(N)cn5)c4n3CC3CC3)c(C)c12 [Example 557, (2-(7-(2-(4-Amino-1H-pyrazol-1-yl)ethoxy)-1-(cyclopropylmethyl)-1H-indol-2-yl)-4-methoxy-3-methylpyrazolo[1,5-a]pyridin-6-yl)((3R,5R)-3-amino-5-fluoropiperidin-1-yl)methanone]
